Source: patent US8901118B2, “Compounds and methods for kinase modulation, and indications therefor” (Plexxikon Inc., priority 2010, dated 2014)

Tests used:
BCR-NTRK1 BaF3 cells = target: T1, BCR-NTRK1 BaF3 cells (Homo sapiens, UniProt P04629); experiment: BaF3 BCR-NTRK1 cell proliferation assay (ATPlite); format: cell-based; details: read-out: Inhibition of Cell Proliferation IC50, BCR/BaF3 TrkA
T1 construct: fused on or other part: P11274 (Breakpoint cluster region protein)
Method in brief: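 IL-3-free growth, 3-day compound exposure (8-point 1:3 titration, top 10 μM, DMSO control), 37 °C 5% CO2. BaF3 10,000 or MV-4-11 25,000 cells/well, plated overnight beforehand. Read-out ATPlite luminescence vs concentration → IC50.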

CYP2D6 = CYP2D6 (Homo sapiens, UniProt P10635); experiment: CYP2D6 inhibition (fluorescent substrate AMMC); format: in vitro ADME; details: read-out: Cyp IC50 2D6
Method in brief: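 IC50 derives from metabolite fluorescence against compound concentration, read at excitation 409 nm and emission 460 nm for CYP1A2/2C19 or 530 nm for CYP2C9/2D6. Incubations ran at 37° C for 15 min (1A2), 45 min (2C9) or 30 min (2C19, 2D6), after serial dilution into NADPH cofactor mix and 10 min preincubation.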

CYP2D6, sequence (P10635 whole entry): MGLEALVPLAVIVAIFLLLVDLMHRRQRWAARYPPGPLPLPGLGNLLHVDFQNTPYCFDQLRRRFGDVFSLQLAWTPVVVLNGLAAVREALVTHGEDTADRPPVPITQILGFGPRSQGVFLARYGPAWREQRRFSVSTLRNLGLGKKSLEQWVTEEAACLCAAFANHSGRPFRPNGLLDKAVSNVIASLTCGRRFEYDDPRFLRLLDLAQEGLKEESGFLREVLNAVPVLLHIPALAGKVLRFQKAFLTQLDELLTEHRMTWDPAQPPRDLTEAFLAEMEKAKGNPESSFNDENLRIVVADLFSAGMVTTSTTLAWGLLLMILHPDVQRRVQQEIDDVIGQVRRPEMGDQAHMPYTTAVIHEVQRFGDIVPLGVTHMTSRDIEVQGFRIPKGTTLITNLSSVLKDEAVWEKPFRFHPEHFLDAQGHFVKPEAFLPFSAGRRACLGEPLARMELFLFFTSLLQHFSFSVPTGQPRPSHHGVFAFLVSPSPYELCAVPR
T1 sequence (P04629 510-781): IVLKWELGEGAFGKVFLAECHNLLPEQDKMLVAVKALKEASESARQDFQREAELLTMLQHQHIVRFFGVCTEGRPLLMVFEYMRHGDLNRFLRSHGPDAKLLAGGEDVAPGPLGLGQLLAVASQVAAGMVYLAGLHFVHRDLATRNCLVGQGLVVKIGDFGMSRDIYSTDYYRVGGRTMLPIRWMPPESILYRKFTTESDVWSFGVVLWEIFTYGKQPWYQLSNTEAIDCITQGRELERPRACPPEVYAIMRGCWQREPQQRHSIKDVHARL

| Structure (SMILES) | IC50 (BCR-NTRK1 BaF3 cells) [nM] | IC50 (CYP2D6) [µM] |
| --- | --- | --- |
| CCn1cc(Nc2ccc(C(=O)c3c[nH]c4ncnc(C5CC5)c34)c(F)n2)cn1 [Compound P-4037, (4-Cyclopropyl-7H-pyrrolo[2,3-d]pyrimidin-5-yl)-[6-(1-ethyl-1H-pyrazol-4-ylamino)-2-fluoro-pyridin-3-yl]-methanone] | < 100 | > 10 |
| Cc1cnc2[nH]cc(Cc3ccc(Nc4ccc(C)nc4)nc3F)c2c1 [Compound P-3041, [6-Fluoro-5-(5-methyl-1H-pyrrolo[2,3-b]pyridin-3-ylmethyl)-pyridin-2-yl]-(6-methyl-pyridin-3-yl)-amine] | < 1000 | > 10 |
| CCc1ccc(Nc2ccc(Cc3c[nH]c4ncc(C)cc34)c(F)n2)cn1 [Compound P-3048, (6-Ethyl-pyridin-3-yl)-[6-fluoro-5-(5-methyl-1H-pyrrolo[2,3-b]pyridin-3-ylmethyl)-pyridin-2-yl]-amine] | < 100 | > 10 |
| CCOc1ccc(Nc2ccc(C(=O)c3c[nH]c4ncnc(OC)c34)c(F)n2)cn1 [Compound P-4024, [6-(6-Ethoxy-pyridin-3-ylamino)-2-fluoro-pyridin-3-yl]-(4-methoxy-7H-pyrrolo[2,3-d]pyrimidin-5-yl)-methanone] | < 100 | > 10 |
| Cc1cnc2[nH]cc(C(=O)c3ccc(Nc4ccc(C)nc4)nc3F)c2c1 [Compound P-3043, [2-Fluoro-6-(6-methyl-pyridin-3-ylamino)-pyridin-3-yl]-(5-methyl-1H-pyrrolo[2,3-b]pyridin-3-yl)-methanone] | < 100 | > 10 |
| COc1ccc(Nc2ccc(Cc3c[nH]c4ncnc(C)c34)c(F)n2)cn1 [Compound P-4002, [6-Fluoro-5-(4-methyl-7H-pyrrolo[2,3-d]pyrimidin-5-ylmethyl)-pyridin-2-yl]-(6-methoxy-pyridin-3-yl)-amine] | < 1000 | > 10 |
| Fc1nc(NC2CCC(F)(F)CC2)ccc1Cc1c[nH]c2ncnc(NC3CC3)c12 [Compound P-4129, N-cyclopropyl-5-[[6-[(4,4-difluorocyclohexyl)amino]-2-fluoro-3-pyridyl]methyl]-7H-pyrrolo[2,3-d]pyrimidin-4-amine] | < 1000 | 5 to 10 |
| Cc1cnc2[nH]cc(C(=O)c3ccc(Nc4ccc(C5CC5)nc4)nc3F)c2c1 [Compound P-3051, [6-(6-Cyclopropyl-pyridin-3-ylamino)-2-fluoro-pyridin-3-yl]-(5-methyl-1H-pyrrolo[2,3-b]pyridin-3-yl)-methanone] | < 100 | > 10 |

Second part, the compound after the results:

| IC50 (BCR-NTRK1 BaF3 cells) [nM] | IC50 (CYP2D6) [µM] | Structure (SMILES) |
| --- | --- | --- |
| < 100 | > 10 | Fc1nc(Nc2ccc(C3CC3)nc2)ccc1Cc1c[nH]c2ncnc(NCC(F)(F)F)c12 [Compound P-4130, 5-[[6-[(6-cyclopropyl-3-pyridyl)amino]-2-fluoro-3-pyridyl]methyl]-N-(2,2,2-trifluoroethyl)-7H-pyrrolo[2,3-d]pyrimidin-4-amine] |
| < 100 | > 10 | Fc1nc(Nc2ccc(C3CC3)nc2)ccc1Cc1c[nH]c2ncccc12 [Compound P-3053, (6-Cyclopropyl-pyridin-3-yl)-[6-fluoro-5-(1H-pyrrolo[2,3-b]pyridin-3-ylmethyl)-pyridin-2-yl]-amine] |
| < 1000 | > 10 | Fc1nc(NC2CCC(F)(F)CC2)ccc1Cc1c[nH]c2ncnc(NCC(F)(F)F)c12 [Compound P-4128, 5-[[6-[(4,4-difluorocyclohexyl)amino]-2-fluoro-3-pyridyl]methyl]-N-(2,2,2-trifluoroethyl)-7H-pyrrolo[2,3-d]pyrimidin-4-amine] |
| < 10 | > 10 | CCc1ccc(Nc2ccc(Cc3c[nH]c4ncnc(C5CC5)c34)c(F)n2)cn1 [Compound P-4028, [5-(4-Cyclopropyl-7H-pyrrolo[2,3-d]pyrimidin-5-ylmethyl)-6-fluoro-pyridin-2-yl]-(6-ethyl-pyridin-3-yl)-amine] |
